Measurements reported in patent US20240010589A1, “SUBSTITUTED RESORCINOL COMPOUNDS AS AMPK ACTIVATORS, COMPOSITIONS, METHODS AND USES THEREOF” (SOCIETE DES PRODUITS NESTLE S.A., priority 2020, published 2024).
Entries after “also recorded” stand apart in the source; their conditions may differ.

What was measured:
[1] = tested on: AMPK containing β1 S108A (ADaM site) mutant subunit; test: pACC HTRF assay in AMPKβ1/β2 double knockout U-2 OS cells stably expressing β1 S108A mutant; assay type: cell-based, human; conditions: varying concentrations, 30 mins at 37 C, FIG. 2
Protocol: (§1) The β1 WT or β1 S108A mutant were stably expressed in […] double knockout cells and were treated with varying concentrations of Compound 1 for 30 mins at 37 C. Phosphorylation of ACC was assessed using the HTRF Cisbio (pACC kit).
(§2) AMPKβ1/β2 double knockout U-2 OS Flp-In™ T-Rex™ cell lines were generated by Horizon Discovery (Cambridge, UK). Cells were genotyped and analysed by Western blotting to confirm that there was a complete knockout of AMPKβ1/β2. We took these AMPKβ1/β2 double knockout cells, and re-introduced the expression of human β1 wild-type (WT) or a (31 Serine 108 to alanine mutation (S108A). This was achieved using the Flp-In™ system (Invitrogen) present in this cell line and stable cells expressing β1 WT or a β1 S108A mutant were generated according to the manufacturers' protocols. Re-expression of the β1 subunit was confirmed by Western blot analysis.
(§3) Cells stably expressing β1 WT or a β1 S108A mutant were treated with varying concentrations of Compound 1. Cells lysates were subjected to the pACC HTRF (Cisbio) assay to determine the level of phosphorylation of the AMPK substrate, ACC, in cell lysates, as in example 1.

AMPK = test: pACC HTRF assay (Cisbio) in U-2 OS Flp-In T-REx cells; assay type: cell-based; conditions: varying concentrations, 30 mins at 37 C, FIG. 1
Protocol: Compound 1 increased the phosphorylation of the AMPK substrate, acetyl-CoA carboxylase (ACC), in U-2 OS Flp-In T-REx mammalian cells. U-2 OS cells were treated with varying concentrations of Compound 1 for 30 mins at 37 C. Phosphorylation of ACC was assessed using the HTRF Cisbio (pACC kit). […] U-2 OS Flp-In T-REx cells were seeded at 50 K in a 96-well plate and left overnight at 37 C in DMEM GlutaMAX (Thermo Fisher Scientific) supplemented with 10% (vol/vol) FBS and 100 U/ml penicillin G, and 100 μg/ml streptomycin. Cells were treated for 30 mins with varying concentrations of Compound 1 in media lacking FBS and then cells were lysed in 50 μl of Cisbio lysis buffer #1 supplemented with blocking solution as per the manufacturer's protocol (Cisbio). Cells were lysed for 30 mins at room temperature before 16 μl of lysate was incubated with 4 μl of the HTRF antibodies (1:40 dilution of the acceptor and donor (p)ACC antibodies, as per the manufacturers protocol). Lysates were incubated overnight with the antibodies before the 665 nm/620 nm ratio was determined using a MolecularDevices i3 plate reader (with a HTRF cartridge add-on). […] Phosphorylation of ACC is extensively used as a cellular read-out of AMPK activity.

[2] = tested on: AMPK containing β1 wild-type (WT) subunit; test: pACC HTRF assay in AMPKβ1/β2 double knockout U-2 OS cells stably expressing β1 WT; assay type: cell-based, human; conditions: varying concentrations, 30 mins at 37 C, FIG. 2
Protocol: as §1, §2, §3

`C=C(C)[C@@H]1CCC(C)=C[C@H]1c1c(O)cc(CCCCC)cc1O` [Compound 1, 2-[(1R,6R)-3-Methyl-6-(1-methylethenyl)-2-cyclohexen-1-yl]-5-pentyl-1,3-benzenediol] was tested, and the “phosphorylation of ACC (pACC) / AMPK activation, fold increase in activation” value [1] was “did not activate AMPK; also recorded: not able to increase the activity of AMPK”, the “phosphorylation of the AMPK substrate ACC (HTRF ratio 665/620 nm)” value (AMPK) was “increased the phosphorylation of the AMPK substrate, ACC, in a dose-dependent manner” and the “phosphorylation of ACC (pACC), fold increase in activation” value [2] was “able to dose-dependently increase pACC”.
